Columns and labels:
[1] = system: primary mouse hepatocytes; assay: RNA-Seq gene expression in primary mouse hepatocytes treated with kinase inhibitors; conditions: 10 μM, 72 hours
Description: The next step was to determine if the PI3/Akt and MAPK pathways are involved in maintenance of hepatocyte maturation. We investigated whether small molecule inhibition of these pathways would mimic let-7's action and reduce the loss of mature function of hepatocytes in culture after removal from their microenvironment. […] Then, expression of the top ten important metabolic enzymes (CYPs, UGTs and transporters) by RNA-Seq with uncultured fresh hepatocytes and control vehicle hepatocytes treated for 72 hours was compared.
Hepatocytes from 6 black mice livers were isolated by perfusion following standard protocol and cultured on Matrigel coated plates in hepatocyte growth medium (Promocell). Whole developing livers from 6 black mice were used for RNA isolation with Trizol for let-7c measurements.
Total RNA (including microRNA) from all cells, which were not mentioned otherwise, were isolated using RNAeasy Plus Kit […] following manufacturers protocol. RNA-Seq was performed by LM-Seq (Illumina). MicroRNAs were sequenced using Illumina's small RNA sequencing kit. Expression of let-7 and U6 snoRNA were measured by quantitative PCR using ABI's kit. Let-7c expression levels were normalized by U6 snoRNA expression (RQ or relative quantity values, error bars representing standard error, RQ min and RQ max).
Multiple batches of cryopreserved induction qualified human hepatocytes (each batch being from one donor) were purchased from Life Technologies and cultured on Matrigel coated plates in hepatocyte growth medium (PromoCell). For dedifferentiation studies, hepatocytes from batches Hu4260, Hu8135, Hu4279 and Hu8137 were used after mixing equal number of live cells. For small molecule treatments, batch Hu4260 was used. Mouse hepatocytes were isolated from Black 6 mice livers by perfusion following standard protocol and cultured on Matrigel coated plates in hepatocyte growth medium (Promocell).
Total RNA were isolated using RNAeasy Plus Kit (Qiagen) following manufacturers protocol and qualified with the Life Technologies Qubit fluorometer and Agilent Bioanalyzer. […] Final indexed cDNA libraries were pooled and sequenced on an Illumina HiSeq 2500. Base-calling and demultiplexing were performed using Casava (v1.8.2). Sequences were filtered and trimmed to remove low quality reads, adapters, and other sequencing artifacts. The remaining reads were aligned to a reference database comprising only RefSeq-validated transcripts (i.e., assigned an “NM_” accession). Mouse samples were aligned to the mm10 assembly, and human samples were aligned to the hg19 assembly. […] Reads with more than 200 alignments were excluded from further analysis. […] All RNA-seq results have been deposited at NCBI's GEO under Accession No. GSE94353.
The inventors next investigated whether the MAPK and PI3/Akt pathways contributed to the dedifferentiation of hepatocytes. […] Rapamycin was included as a control, which is an inhibitor of the mTOR pathway, a serine/threonine kinase involved in cell signaling not identified as a key pathway in our analysis.

[2] = system: primary human hepatocytes (PHHs); assay: RNA-Seq gene expression in MAPK inhibitor treated primary human hepatocytes; assay type: cell-based
Experimental: […]. […] […].
For small RNA-Seq profiling, hepatocytes from Hu8082 were used; for de-differentiation time course and let-7c transduction, hepatocytes from Hu4260, Hu8135, Hu4279 and Hu8137 were used. For both experiments, cells from all 4 donors were mixed in equal numbers after assessment of viability. For small molecule treatments, batch Hu4260 was used.
RNA-Seq was performed by LM-Seq (Illumina).
For small molecule treatments, batch Hu4260 was used.
. To ascertain that the increase in metabolic enzymes took place through specific MAPK inhibition, PHHs were treated with a second MAPK inhibitor, PD0325901, for 72 hours, followed by RNA-Seq analysis (Supplementary Table 4). […].

HepG2 cells = assay: HepG2 viability / cell growth (cell counting by dye exclusion); assay type: cell-based, human; conditions: HepG2, 72 hours, compared to vehicle control
Experimental: CYP2C9 and 3A4 metabolism were measured using CYP450 Glo assay (Promega). In short, substrates were added to the media and incubated for 72 hours and the amount of metabolites generated were measured by adding the detection reagent and quantifying the luminescence in a Tecan® plate reader. Background was measured by incubating the substrates for 72 hours in the same media without cells. Cell counting for proliferation assay was carried out by dye exclusion in an automated cell counter (ThermoFisher).

[3] = system: H9-ALB-GFP/AFP-Tomato (dual clone 1) derived hepatocytes; assay: RNA-Seq of ES-derived hepatocytes treated with Stauprimide; assay type: cell-based, human; set-up: HNF4A RNA-Seq expression / ADH4 RNA-Seq expression / BAAT RNA-Seq expression / SERPINC1 RNA-Seq expression / SERPINA1 RNA-Seq expression / ALB RNA-Seq expression / AFP RNA-Seq expression / UGT1A9 RNA-Seq expression / UGT1A1 RNA-Seq expression / UGT1A6 RNA-Seq expression: unit not given here; conditions: dual clone 1 ES-derived hepatocytes (CDI), 72 hrs
Experimental: The effects of Stauprimide in maturation of ES-derived hepatocytes was validated by RNA-Seq as described above. Briefly, the H9-ALB-GFP/AFP-Tomato (dual clone 1) were differentiated to a pure population of hepatocytes by CDI (Madison, Wis.) and treated with Stauprimide for 72 hours. […] Thus, Stauprimide is able to increase expression of mature hepatocyte genes and reduce the expression of the fetal marker AFP.

hepatocytes = assay: Robotic compound screen for albumin and AFP expression in hepatocytes; assay type: cell-based
Experimental: A robotic screen was performed to determine compounds that increase expression of albumin in hepatocytes as an indicator that the compounds play a role in hepatocyte maturation. 1200 compounds were screened and 400 compounds analyzed for their effects on hepatocytes with regard to the levels of albumin and fetal marker AFP.

[4] = system: H9-ALB-GFP/AFP-Tomato (dual clone 1); assay: Gene expression of hepatocytes differentiated from ES cells with 3 or 18 days of Activin A; assay type: cell-based, human; set-up: scale not given here; conditions: dual clone 1 hepatocytes, unsorted
Experimental: The H9-ALB-GFP/AFP-Tomato (dual clone 1) were differentiated to hepatocytes using the protocol depicted in FIG. 4. Either 3 day or 18 days of Activin A treatment was used with the rest of the protocol being the same. The cells were not sorted and differentiated for 18 and 33 days (for 3 and 18 day DE respectively).
ES cells were cultured in E8 medium (Reference 2) and were differentiated to hepatocytes following a previously published protocol (Reference 1) with modifications. Briefly, at approximately 50% confluency the ES cells were singularized by accutase and seeded on matrigel coated plate in E6 medium containing 100 ng/ml Activin A (Sigma). They were cultured in the Activin A medium for seven days. From day 8 to day 12 the cells were treated with 25 ng/ml FGF4 (R&D Systems) along with 20 ng/ml BMP2 in E6. During days 13 through 17 the cells were treated with 20 ng/ml HGF (R&D Systems) and 10 ng/ml Oncostatin M (R&D Systems) in E6. Finally, the cells were cultured in E6 containing 0.1 μM Dexamethasone (Sigma) from day 18 to day 22. From day 8 onwards, SB431542 and DAPT were added to the medium to inhibit TGFB and NOTCH respectively at 10 μM final concentration.

[5] = primary human hepatocytes, treated 72 hours
[6] = 3 day Activin A (DE), differentiated 18 days
[7] = 18 day Activin A (DE), differentiated 33 days

O=c1cc(N2CCOCC2)oc2c(-c3ccccc3)cccc12 [LY294002]
ABCC2 gene expression [1]: 232.34 transcripts per million
CYP1A2 gene expression [1]: 80.54 transcripts per million
CYP2C9 gene expression [1]: 1332.65 transcripts per million
CYP2E1 gene expression [1]: 57.37 transcripts per million
CYP3A11 gene expression [1]: 1409.71 transcripts per million
CYP3A25 gene expression [1]: 61.42 transcripts per million
UGT1A6A gene expression [1]: 48.21 transcripts per million
UGT1A9 gene expression [1]: 15.27 transcripts per million
UGT1A10 gene expression [1]: 0.86 transcripts per million
UGT2B5 gene expression [1]: 196.44 transcripts per million

O=C(NOC[C@H](O)CO)c1ccc(F)c(F)c1Nc1ccc(I)cc1F [PD0325901]
HBV receptor expression ([2]; PHHs treated 72 hours): upregulated
AFP gene expression [2, 5]: 7.07 transcripts per million
ALB gene expression [2, 5]: 1293.62 transcripts per million
CD81 gene expression [2, 5]: 388.31 transcripts per million
CYP1A2 gene expression [2, 5]: 1.87 transcripts per million
CYP1B1 gene expression [2, 5]: 3.56 transcripts per million
CYP2C9 gene expression [2, 5]: 73.61 transcripts per million
CYP2D6 gene expression [2, 5]: 1.24 transcripts per million
CYP2E1 gene expression [2, 5]: 4.94 transcripts per million
CYP3A4 gene expression [2, 5]: 22.44 transcripts per million
SLCO1B1 gene expression [2, 5]: 151.48 transcripts per million
SLCO1B3 gene expression [2, 5]: 7.24 transcripts per million
UGT1A1 gene expression [2, 5]: 69.02 transcripts per million
UGT1A6 gene expression [2, 5]: 1337.30 transcripts per million
UGT1A9 gene expression [2, 5]: 87.51 transcripts per million
HepG2 viability / cell growth (HepG2 cells): increased cell death and growth arrest

CO[C@@H]1[C@H](N(C)C(=O)c2ccccc2)C[C@H]2O[C@]1(C)n1c3ccccc3c3c4c(c5c6ccccc6n2c5c31)C(=O)NC4=O [Stauprimide]
ADH4 RNA-Seq expression [3]: 12.82
AFP RNA-Seq expression [3]: 2485.61
ALB RNA-Seq expression [3]: 8513.48
BAAT RNA-Seq expression [3]: 10.4
CYP2D6 RNA-Seq expression [3]: 0 TPM
CYP2E1 RNA-Seq expression [3]: 9.6 TPM
HNF4A RNA-Seq expression [3]: 25.97
SERPINA1 RNA-Seq expression [3]: 10030.14
SERPINC1 RNA-Seq expression [3]: 42.45
UGT1A1 RNA-Seq expression [3]: 322.35
UGT1A6 RNA-Seq expression [3]: 411.32
UGT1A9 RNA-Seq expression [3]: 47.42
CYP1A1 RNA-Seq expression ([3]; in TPM): 47.04
CYP2C9 RNA-Seq expression ([3]; in TPM): 19.63
expression of AFB (hepatocytes): did not increase expression
expression of albumin (hepatocytes): increased expression

Activing A: Activin A, growth factor used to differentiate pluripotent stem cells to definitive endoderm
AFP gene expression [4, 6]: 1663.62
ALB gene expression [4, 6]: 600.43
CYP1A1 gene expression [4, 6]: 23.85
CYP2C9 gene expression [4, 6]: 2.26
CYP2D6 gene expression [4, 6]: 2.24
CYP2E1 gene expression [4, 6]: 0
CYP3A4 gene expression [4, 6]: 0.92
U6T1A1 gene expression [4, 6]: 3.86
UGT1A6 gene expression [4, 6]: 1.75
AFP gene expression [4, 7]: 8635.2
ALB gene expression [4, 7]: 5129.36
CYP1A1 gene expression [4, 7]: 80.48
CYP2C9 gene expression [4, 7]: 76.46
CYP2D6 gene expression [4, 7]: 3.51
CYP2E1 gene expression [4, 7]: 0.4
CYP3A4 gene expression [4, 7]: 33.64
U6T1A1 gene expression [4, 7]: 66.36
UGT1A6 gene expression [4, 7]: 23.94

— patent publication US11116799B2, “Generation of uniform hepatocytes from human embryonic stem cells by inhibiting TGF-beta and methods of maintaining hepatic cultures” (Wisconsin Alumni Research Foundation, priority 2016, dated 2021)
